Source: patent publication US9487752B2, “Priming of pluripotent stem cells for neural differentiation” (Cellular Dynamics International, Inc., priority 2011, dated 2016)

Tests used:
Type in all cases: cell-based
iPSC line (2.042) = assay: Neural differentiation of iPSC line 2.042, neuron purity by βIII-tubulin/Nestin double stains; details: only one of 10 μM SB-431542 or 1 μM dorsomorphin in medium on Days −2, −1, 0 and 1; Day 28 (FIG. 3C)
iPS cell line 8004 [1] = assay: Neuron purity of iPS cell line 8004 by TUJ1/Nestin flow cytometry staining; details: 10 μM SB-431542 on Days −2, −1, 0, and 1; Day 28
Procedure: (§1) iPS cell line 8004 was differentiated using the procedure of Example 3 with and without 10 μM SB-431542 added to culture medium on Days −2, −1, 0, and 1. On Day 28, neuron purity as determined by TUJ1/Nestin flow cytometry staining was 80% without SB-431542 and 97% with SB-431542. Beginning on Day 30 of the. procedure, cells were fed 90% 1× DMEM-F12/10% FBS every 7 days. Astrocyte outgrowth was first detected on Day 45. On Day 48, cultures were assayed by flow cytometry for astrocyte purity using GFAP as a marker for astrocytes. […] In summary, the methods detailed herein provide for a method to produce cultures of high purity astrocytes in a time efficient manner relative to existing astrocyte differentiation methods.

iPS cell line 8004 [2] = assay: Astrocyte purity of iPS cell line 8004 cultures by flow cytometry using GFAP as marker; details: 10 μM SB-431542 on Days −2, −1, 0, and 1; fed 10% FBS from Day 30; Day 48
Procedure: as §1

iPSC line 1729c4 = assay: Neural differentiation of iPSC line 1729c4, purity by flow cytometry with βIII-tubulin/Nestin double stains; details: 10 ng/mL FGF8 present on Day −3; Day 27
From the text: iPS cells were maintained on Matrigel in TeSR medium (Stem Cell Technologies) and sodium citrate split one passage prior to aggregate formation and grown in T150 flasks, but can be scaled for starting cells in other culture formats. Alternate pluripotent cell culture media (such as E8 media: Chen et al., 2011), containing varying concentrations of TGFβ and/or bFGF, can be used to optimize neural differentiation of different iPS cell lines or clones. Pluripotent cell cultures were then “primed” for differentiation three or four days prior to aggregate formation. […]
On Day 0 of the neuron differentiation process (specifically, aggregate formation), cells are harvested from T150 flasks (up to five flasks at one time) and, after media is aspirated, 12 mL of warm TrypLE is added to each flask and the cells are incubated at 37° C. for 7 minutes. […] The tubes may be combined and cells are counted (CEDEX HiRES cell counter). […] Diluted cell stock is counted (CEDEX HiRES cell counter). […]

NC(=O)c1ccc(-c2nc(-c3ccc4c(c3)OCO4)c(-c3ccccn3)[nH]2)cc1 [SB-431542]
neuron purity by βIII-tubulin/Nestin double stains compared to both inhibitors (iPSC line (2.042)): similarly high neuron purities
neuron purity by TUJ1/Nestin flow cytometry staining (iPS cell line 8004 [1]): 97%
GFAP positive cells (astrocyte purity) (iPS cell line 8004 [2]): 56%

B1: FGF8: fibroblast growth factor 8, reported as an endogenous neural inducer (protein, UniProt P55075 23-233, looked up)
Fibroblast growth factor 8: QEGPGRGPALGRELASLFRAGREPQGVSQQHVREQSLVTDQLSRRLIRTYQLYSRTSGKHVQVLANKRINAMAEDGDPFAKLIVETDTFGSRVRVRGAETGLYICMNKKGKLIAKSNGKGKDCVFTEIVLENNYTALQNAKYEGWYMAFTRKGRPRKGSKTRQHQREVHFMKRLPRGHHTTEQSLRFEFLNYPPFTRSLRGSQRTWAPEPR
βIII-tubulin/Nestin positive cells (iPSC line 1729c4): 90%
